This is an account of results in patent publication US9988371B2, “Benzimidazole analogues and related methods” (The Arizona Board of Regents, on Behalf of the University …, priority 2014, dated 2018).

One data set in a line: PK study in rats. The class given is in vivo. The protocol: For PK studies of Pz-1 in animals, a solution formulation for oral administration was created in 500 μL of polysorbate 80, 500 μL of EtOH, and 1.0 mL of pH 2 buffer. For the toxicity studies, a suspension formulation was developed in tween 20 (20%) and xanthan gum (0.125%).
T112 (3-4 hrs) in rats was in line with T1/2 in mice (4.2 hrs).

The target in a further data set is T1, RET wild type (Homo sapiens, UniProt P07949).
T1 construct: purchased Invitrogen
In words: RET biochemical assay (EZ Reader mobility shift). The settings on record: 30 min pre-incubation, 200 μM ATP, exact potency beyond measurable limit. The protocol:
Suitable screening assays for RET and VEGFR2 small molecule kinase inhibitors (from a kinase-directed fragment (KDF) library) were established. The RET kinase assay utilizes an EZ Reader Electrophoresis Mobility Chip Instrument (Caliper Life Science). In the assay, 2 nM recombinant RET enzyme (Invitrogen) is pre-incubated with a small molecule inhibitor or control buffer for 30 min to allow the Type-II kinase inhibitor to trap the DFG-out conformation to which the inhibitors bind. This class of inhibitors is indirectly competitive with ATP, and slow binding kinetics (low kd) allow the inhibitors to appear non-competitive and pseudo-irreversible in nature. Because of the non-competitive nature of these inhibitors, a more biologically relevant concentration of ATP substrate (200 μM) was incorporated in this assay. After 30 min of pre-incubation, a substrate mix containing […], 20 mM MgCl2 and 1.5 μM fluorescently labeled RET substrate peptide (Caliper LS, peptide 22; Perkin Elmer, USA) was added. The conversion level of the RET substrate peptide was then determined utilizing the EZ Reader instrument. […]
The RET kinase assay utilizes a microfluidics based instrument for direct kinase activity readout (Caliper Life Science). […] The conversion level of the RET substrate peptide was determined utilizing the EZ Reader instrument. […]

The next data set deals with TT cells xenografted. In words: TT cell xenograft in SCID mice. It counts as in vivo. The settings on record: 0.3, 1.0, or 3.0 mg/kg daily, oral gavage, 28 days; all tested doses. The text has this:
FIG. 7: Anti-tumorigenic activity of Pz-1 on TT cells xenografted into SCID mice. […] Average volumes of tumors are reported±SD (standard deviation). TT cells (7.5×10^6/mouse) were inoculated subcutaneously into dorsal portions (both sides) of 39 female SCID mice (Jackson Laboratories, Bar Harbor, Me.). After 5 weeks, at least one tumour was present in each mouse and a total of 70 tumours were visible: 56 tumours were 40-150 mm^3 and 14 tumours were <40 mm^3. […] Tumor-bearing animals were randomly assigned to receive Pz-1 (0.3, 1.0, or 3.0 mg/kg, daily) (29 mice, 52 tumours) or vehicle (10 mice, 18 tumours) by oral gavage. Treatment was administered for 28 consecutive days. Tumor diameters were measured with calipers every week. Tumor volumes (V) were calculated by the rotational ellipsoid formula: V=A×B^2/2 (A=axial diameter; B=rotational diameter) and reported as average volumes±standard deviations. […]
TT cells (7.5×10^6/mouse) were inoculated subcutaneously into dorsal portions (both sides) of 39 SCID mice (Jackson Laboratories, Bar Harbor, Me.). […] Tumor diameters were measured with callipers every week. Tumor volumes (V) were calculated by the rotational ellipsoid formula: V=A×B^2/2 (A=axial diameter; B=rotational diameter) and reported as average volumes±standard deviations. […] Tumor diameters were measured with calipers every 1-2 days. […]

The test system of data set [1] is parental NIH3T3 fibroblasts. In words: Growth of parental NIH3T3 fibroblasts. The class given is cell-based. The settings on record: up to 1000 nM, 3 days.

The term half-life denotes how long it takes for the measured level to halve. As a reminder, the IC50 is the concentration that inhibits the measured activity by half.

T1 sequence (P07949 724-1016 limits assumed): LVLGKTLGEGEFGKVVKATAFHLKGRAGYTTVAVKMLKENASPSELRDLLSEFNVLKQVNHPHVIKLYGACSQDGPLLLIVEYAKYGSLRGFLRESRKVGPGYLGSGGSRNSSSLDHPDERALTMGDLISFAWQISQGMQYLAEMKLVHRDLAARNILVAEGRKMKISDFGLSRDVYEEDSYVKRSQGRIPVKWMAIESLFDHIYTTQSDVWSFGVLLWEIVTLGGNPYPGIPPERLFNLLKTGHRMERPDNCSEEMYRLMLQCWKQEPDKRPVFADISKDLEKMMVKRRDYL

Regarding `Cn1cc(-c2ccc3c(c2)ncn3-c2ccc(CC(=O)Nc3cc(C(C)(C)C)on3)cc2)cn1` [Pz-1, N-(5-(tert-butyl)isoxazol-3-yl)-2-(4-(5-(1-methyl-1H-pyrazol-4-yl)-1H-benzo[d]imidazol-1-yl)phenyl)acetamide], in the data set “PK study in rats”, the T112 lay within 3 to 4 h and the volume distribution is listed as 2.02 L/kg. Also, the AUC in the data set “PK study in rats” (1 mg/kg (IV)) is 1.9 µg/h/mL. The same molecule registered an AUC in “PK study in rats” (10 mg/kg (oral)) of 19 µg/h/mL. In “PK study in rats” (oral), the bioavaliblity amounted to 97%. In addition, in the data set “PK study in rats” (rat, in vivo, 10 mg/kg, oral study, read-out: elimination half-life (converted)), the half-life was 252 min. This molecule displayed a clearance in the data set “PK study in rats” (rat, in vivo, oral, 10 mg/kg) of 9 mL/min/kg. In addition, the IC50 on RET wild type is below 1 nM. Moreover, the tumor growth result in the data set on TT cells xenografted is on record as “strongly inhibited tumor growth”. Besides, the effect on growth result in data set [1] is “did not significantly reduce growth”.
